Source: US20220056014A1, “PHENYLPYRROLIDINE COMPOUND AND USE THEREOF” (WUHAN HUMANWELL INNOVATIVE DRUG RESEARCH AND DEVELOPMENT …, priority 2018, published 2022)
Read-outs that look alike come from different tables or passages of the source.

Tests used:
[1] = test system: Mouse CIA arthritis model; assay: Mouse CIA arthritis model test; assay type: in vivo, DBA/1 mice; conditions: 30 mg/kg oral, twice a day for 21 days
Experimental: (1) Preparation of Type II Collagen/Complete Freund's Adjuvant
Preparation of acetic acid: 2N acetic acid was diluted to 100 mM, filtered with 0.22 μm filter membrane, and stored at 4° C.
Preparation of bovine type II collagen solution: bovine type II collagen (CII) was dissolved in 100 mM acetic acid solution and stored at 4° C. overnight. A final concentration of collagen was 8 mg/mL.
Preparation of emulsion: the CII solution stored overnight was mixed with an equal volume of complete Freund's adjuvant, and homogenized on ice by a high-speed homogenizer at 30,000 rpm for approximately 60 min, until the solution formed a stable emulsion.
After DBA/1 mice were anesthetized with isoflurane, 50 μl of prepared collagen emulsion (containing 200 micrograms of CII) was injected subcutaneously in the tail (2-3 cm from the base of the tail) for immunization. The day of the primary immunization was recorded as day 0, and the following days were recorded sequentially. On day 21, the same volume of collagen emulsion was injected into the tail in the same way. Mice in the normal group were not immunized.
On day 21, the mice that had been induced to have arthritis were randomly grouped according to their body weights, such that the average body weight of each group was consistent, and they were randomly divided into 6 treatment groups for administration, with 10 mice in each group.
G1 group included normal mice without being treated; G2 group was given a blank vehicle; G3 to G7 groups were administrated with the compound at a dose of 30 mg/kg, twice a day for 21 days. The volume of oral administration was 10 mL/kg.
After the enhanced immunization, the disease incidence of the mice was observed every day. When the mice began to develop symptoms (clinical symptoms of arthritis emerged), the symptoms were graded as 0 to 4 according to the different degrees of pathological changes (redness, joint deformation), where the highest score for each limb was 4, and the highest score for each animal was 16. The mice were graded at least three times a week.
The area under curve (AUC) of clinical scores of each group from day 21 to day 42 was calculated, and the inhibition rate % of the clinical score AUC of the administration group was calculated:
Inhibition rate %=1−(administration group AUC/blank vehicle group AUC)*100%
The experimental data are expressed as Mean±standard error (Mean±SEM), and the clinical scores were analyzed with One-way ANOVA, where p<0.05 was considered to be a significant difference.

PDE4B = biological target: T1, PDE4B (Homo sapiens, UniProt Q07343); assay: PDE4B enzyme activity assay (PDE-Glo Phosphodiesterase Assay Kit); assay type: biochemical
T1 construct: purchased Enzo Life Sciences BML-SE522-0020
How it was run: (§1)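 Recombinant human PDE4B (1 ng/μl working solution) or PDE4D (4 ng/μl working solution) preincubated 5 min at RT with compound, then reacted 20 min with cAMP (2 μM in added solution). PDE-Glo termination/detection and Kinase-Glo steps followed; luminescence read and IC50 fitted.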

[2] = test system: LPS-stimulated TNF-α release; assay: LPS-stimulated TNF-α release in mice; assay type: in vivo, Balb/c mice; conditions: Mus musculus, oral 50 mg/kg (positive control 100 mg/kg), 1 mg/kg LPS i.p.
Experimental: 18 Balb/c mice (6 to 8 weeks) were randomly assigned to a blank group, a model group, and an administration group, 6 mice in each group. A vehicle (blank group, model group) or 50 mg/kg compound (administration group, where the dose for the positive control group was 100 mg/kg) was orally administrated. 30 min after the oral administration, PBS (blank group) or 1 mg/kg LPS (model group and administration group) was injected intraperitoneally. 90 min or 120 min after the intraperitoneal injection, blood was collected from the hearts of the mice, and still stood at 2-8° C. for 4 hours, and centrifuged at 5000 rpm for 10 min to collect the serum. The serum was stored at −80° C. for testing.
The serum TNF-α level was tested using a mouse TNF-α detection kit (Mouse TNFa ELISA kit: Biolegend, Cat: 430904). The inhibitory activity of the compounds against the TNF-α release was calculated based on the serum TNF-α level.
Inhibitory activity of compound %={1−(TNFα concentration of administration group−TNFα concentration of blank group)/(TNFα concentration of model group−TNFα concentration of blank group)}×100%.

[3] = test system: LPS-induced secretion of TNFα in human PBMCs; assay: LPS-induced secretion of TNFα in human PBMCs; assay type: cell-based; conditions: Homo sapiens, PBMC, 24 h, LPS 10 ng/ml
How it was run: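 PBMCs isolated by Lymphoprep density centrifugation were seeded at 5×10^4/well in RPMI1640 + 10% FBS and given compound, with 30 min pre-incubation, then stimulated with 10 ng/ml LPS (final). After 24 h, supernatant TNF-α was measured by ELISA kit.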

PDE4D = biological target: T2, PDE4D (Homo sapiens, UniProt Q08499); assay: PDE4D enzyme activity assay (PDE-Glo Phosphodiesterase Assay Kit); assay type: biochemical
T2 construct: purchased Enzo Life Sciences BML-SE523-0020
How it was run: as §1

T1 sequence (Q07343 whole entry): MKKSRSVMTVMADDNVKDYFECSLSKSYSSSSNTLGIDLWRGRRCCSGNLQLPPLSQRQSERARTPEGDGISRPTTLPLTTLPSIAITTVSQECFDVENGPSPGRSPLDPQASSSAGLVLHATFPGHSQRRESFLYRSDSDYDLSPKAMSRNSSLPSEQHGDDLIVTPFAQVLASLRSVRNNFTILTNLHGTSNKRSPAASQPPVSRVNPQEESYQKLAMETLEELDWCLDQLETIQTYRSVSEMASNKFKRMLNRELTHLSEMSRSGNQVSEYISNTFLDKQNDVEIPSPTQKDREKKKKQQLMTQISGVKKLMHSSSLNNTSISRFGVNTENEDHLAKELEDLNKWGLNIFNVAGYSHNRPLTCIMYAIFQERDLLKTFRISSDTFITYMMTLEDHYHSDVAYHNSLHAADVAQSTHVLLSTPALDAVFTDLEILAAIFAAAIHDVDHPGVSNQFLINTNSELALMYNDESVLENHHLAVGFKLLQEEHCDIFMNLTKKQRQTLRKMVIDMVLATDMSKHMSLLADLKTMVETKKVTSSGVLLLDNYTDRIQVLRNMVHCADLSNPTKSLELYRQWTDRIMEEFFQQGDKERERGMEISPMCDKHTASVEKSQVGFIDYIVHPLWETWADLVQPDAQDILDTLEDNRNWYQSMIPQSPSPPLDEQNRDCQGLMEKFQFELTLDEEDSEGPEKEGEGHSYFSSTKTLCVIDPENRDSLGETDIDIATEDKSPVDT
T2 sequence (Q08499 whole entry): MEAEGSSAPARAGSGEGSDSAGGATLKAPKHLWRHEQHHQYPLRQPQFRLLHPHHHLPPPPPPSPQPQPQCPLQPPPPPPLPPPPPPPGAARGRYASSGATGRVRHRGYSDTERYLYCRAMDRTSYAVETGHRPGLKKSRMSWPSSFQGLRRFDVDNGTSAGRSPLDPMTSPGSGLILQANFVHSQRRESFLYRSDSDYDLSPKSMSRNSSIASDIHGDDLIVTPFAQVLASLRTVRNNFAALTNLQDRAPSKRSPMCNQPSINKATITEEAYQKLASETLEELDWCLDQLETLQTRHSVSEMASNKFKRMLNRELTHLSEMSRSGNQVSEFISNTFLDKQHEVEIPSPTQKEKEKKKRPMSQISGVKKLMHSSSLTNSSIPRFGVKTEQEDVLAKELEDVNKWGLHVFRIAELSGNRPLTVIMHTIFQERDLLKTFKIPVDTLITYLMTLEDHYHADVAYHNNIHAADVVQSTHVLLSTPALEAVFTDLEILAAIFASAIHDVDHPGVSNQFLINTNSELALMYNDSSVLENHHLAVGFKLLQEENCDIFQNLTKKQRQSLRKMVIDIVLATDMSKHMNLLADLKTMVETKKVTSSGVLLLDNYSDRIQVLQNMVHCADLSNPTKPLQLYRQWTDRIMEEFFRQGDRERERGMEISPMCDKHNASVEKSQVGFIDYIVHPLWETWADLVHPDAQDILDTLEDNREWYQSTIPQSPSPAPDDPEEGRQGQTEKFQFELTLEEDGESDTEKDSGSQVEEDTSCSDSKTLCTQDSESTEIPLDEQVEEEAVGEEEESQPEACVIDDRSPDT

IC50 (PDE4B): 1.87 nM | IC50 (PDE4D)/IC50 (PDE4B) (PDE4B; selectivity ratio): 1.37 | IC50 (PDE4D): 2.56 nM
Compound: CCc1ccc(N2CC(Oc3cc([C@@H]4CN(C(=O)[C@@H](O)CO)C[C@@]4(C)[C@@H](C)O)ccc3OC)C2)nc1 [Compound 031, (S)-1-((3S,4S)-4-(3-((1-(5-ethylpyridin-2-yl)azetidin-3-yl)oxy)-4-methoxyphenyl)-3-((R)-1-hydroxyethyl)-3-methylpyrrolidin-1-yl)-2,3-dihydroxypropan-1-one]
inhibition rate based on clinical score AUC ([1]; AUC day 21 to day 42): 85.0% | Clinical score (endpoint) ([1]; day 42, highest score 16): 2.1 | inhibition in vivo at 50 mg/kg ([2]; 1.5 h, blood 90 min after LPS, read-out: Inhibition rate (%) of LPS-stimulated TNF-α release, 90 min): 64.8% | inhibition in vivo at 50 mg/kg ([2]; 2 h, blood 120 min after LPS, read-out: Inhibition rate (%) of LPS-stimulated TNF-α release, 120 min): 78.3% | IC50 [3]: 0.7 nM
